Experimental findings from patent US8557331B2, “Antifouling method and composition using chromen-4-one derivatives” (The Hong Kong University of Science and Technology, priority 2008, dated 2013) are described below.

≈ marks a conversion by molar mass, not a printed value.

By EC50 is commonly meant the concentration that produces a half-maximal response. In general, LC50 refers to the concentration lethal to half of the exposed cells or organisms. Read a high LC50 as a less lethal substance.

Series [1] concerns larval settlement of the barnacle Balanus amphitrite. In words: Bioassay for antifouling activity against larval settlement (cyprids, 24-well plate, 24 h). On the procedure:
(§1) The larvae were reared in freshly filtered natural seawater (FSW, 0.45 μm, 32S salinity) and fed with Chaetoceros gracilis Schutt at 24° C. in the Coastal Marine Laboratory, the Hong Kong University of Science and Technology (HKUST). Larvae that were competent to settle (called cyprids) were stored for 2 days at 8° C. prior to being used in the bioassays. Ten μl of each test sample dissolved in dimethyl sulfoxide (DMSO) were transferred into a well in 24-well polystyrene plate after the addition of 1 ml of FSW. The control wells contained 1 ml of FSW and 10 μl of DMSO. About 15 cyprids were added in each well with triplicate samples being tested.
as §1, with “freshly filtered nature seawater (FSW,” for “freshly filtered natural seawater (FSW,”, “Technology (HKUST). Cyprids (competent larvae) were stored” for “Technology (HKUST). Larvae that were competent to settle (called cyprids) were stored”, “8° C. (aged cyprids) prior to” for “8° C. prior to”

Experiment in series [2]: as above
As to conditions: Balanus amphitrite (barnacle, cyprid larvae), in vivo. Here is the method:
as §1
as §1, with “freshly filtered nature seawater (FSW,” for “freshly filtered natural seawater (FSW,”, “Technology (HKUST). Cyprids (competent larvae) were stored” for “Technology (HKUST). Larvae that were competent to settle (called cyprids) were stored”, “8° C. (aged cyprids) prior to” for “8° C. prior to”

Series [3] in a line: Hydrolysis experiment of genistein (ASTM E895-89, HPLC). Format: physicochemical. As to conditions: 50° C. in dark, a week. Here is the method:
The experiments were carried out according to the method described in ASTM (1993). Buffer solutions consisting of 20 mM of sodium acetate were prepared with adjusted pH level at 5, 7, and 9. FSW was the same as those used in bioassays. Artificial seawater (ASW) was prepared as van't Hoff formula (460 mM NaCl, 10.1 mM KCl, 9.2 mM CaCl2, 35.9 mM MgCl2, 17.5 mM MgSO4, 10 mM Tris-HCl, and pH 8.2). Test solution (900 ml) containing 4 μg genistein was divided into nine test glass tubes (100 ml each), and then the tubes were tightly capped. Immediately after preparation of the test solutions, three tubes were loaded onto a Sep-Pak tC18 ENV column (Waters, USA), preconditioned for use by eluting it with methanol and water under reduced pressure. The column after loading the test sample was eluted with water to remove any salts in the test samples, and was then eluted with 2.5 ml of DMSO. Thus, the eluate was 40 times more concentrated than the sample in the original test solution; this concentrated solution was subjected to HPLC analysis. The HPLC system (600, Waters, USA) was equipped with a photodiode array detector (996, Waters, USA) installed in tandem after outlet of the column (Phenomenex Luna 5λ C18 100A, 250×4.60 mm, 5 micron). The solvents used were (A) 5% acetonitrile and (B) 95% acetonitrile at the isocratic flow rates of (A) 0.53 ml min^−1 and (B) 0.47 ml min^−1 at 40° C., respectively. A volume of ten μl of elute was injected into the column using an autosampler (717plus, Waters, USA). The UV absorption at 1=260 nm was used for quantification. The analytical data were shown as the average value of triplicate analyses. The remaining six tubes were kept at 50° C. in the dark in an incubator for a period of four or seven days according to ASTM Procedure E895-89 (ASTM, 1993). After the incubations, each of three test samples was subjected to HPLC analysis, following the same concentration process as described above to determine the remaining concentration of genistein.

The test system of series [4] is barnacle Balanus amphitrite. Put plainly: Field experiment: resin-based paint on PVC panels submerged at pier. It counts as in vivo. On the procedure: Test compounds (genistein, Cu2O, or their mixture) were mixed with resin-based paint (Permoglaze, Akzo Nobel Decorative Coatings, Lancashire, UK) with addition of 15% of (w/w) xylene, and then sprayed on the surface of PVC panels (size: 10 cm×10 cm×0.5 cm). Genistein was incorporated into paint by 10 and 20% of the dry weight as the low and high concentrations, respectively. In the experiments of combination effects, both Cu2O and genistein at 10% of dry weight were added. The controls used was a resin based paint with addition of 15% (w/w) of xylene only. Each of the tested paints was mixed for more than 8 h before being spread onto panels. The thickness of each paint film was between 100 and 150 μm. The painted panels were air-dried completely prior to being tied to PVC frames and deployed vertically at a depth of 1-1.5 m at the pier of HKUST from March to June in 2007. The numbers of adult barnacle B. amphitrite on the surface were counted and the density on each panel was calculated after their submergences. Four replicates were tested for each sample.

Where [5] appears, read: Amphibalanus amphitrite, Table 2, larval settlement.
[6] abbreviates: Amphibalanus amphitrite, Table 2, larval settlement of Balanus amphitrite, mean ± standard deviation of at least three replicates.
[7] abbreviates: Table 2, LC50 used is the highest concentration causing <50% death of larvae.
Setting [8] is: judged from LC50/EC50, standard of Avelin et al. (1993): nontoxic if higher than 10.
Setting [9] is: single compound at 10% of dry weight of paint, three months submergence.

With `COc1c(OC)c(O)c2c(=O)c(OC)c(-c3ccc(O)cc3)oc2c1OC` [Sample F-1, 4′,5-dihydroxy-3,6,7,8 tetramethoxy-flavone], the EC50 in series [1] (setting [5]) is about 3 µg/mL (≈ 8.01 µM); in series [1] (setting [6]) it was 3.4 ± 0.5 µg/mL (≈ 9.08 µM). The LC50/EC50 in series [1] (setting [7]) is given as over 14.7. Besides, in series [1] (in vivo), the “toxicity (in words)” value is listed as “almost no toxicity”.

Take `COc1ccc(-c2coc3c(OC)c(O)ccc3c2=O)cc1` [Sample F-2, 7-hydroxy-8,4′-dimethoxyisoflavone]: the EC50 in series [1] (setting [6]) amounted to 13.3 ± 2.5 µg/mL (≈ 44.6 µM). The LC50/EC50 in series [1] (setting [7]) is over 7.50.

Consider `COc1ccc(-c2oc3cc(OC)c(OC)c(O)c3c(=O)c2OC)cc1O` [Sample F-3], for which the EC50 is about 3 µg/mL (≈ 8.01 µM) in series [1] (setting [5]) and 3 ± 0.4 µg/mL (≈ 8.01 µM) in series [1] (setting [6]). In series [1] (setting [7]), this compound returned an LC50/EC50 of over 16.7. In addition, the “toxicity (in words)” value in series [1] (in vivo) is “almost no toxicity”.

Consider `COc1cc2oc(-c3ccc(O)cc3)c(OC)c(=O)c2c(O)c1OC` [Sample F-4, 4′,5,-dihydroxy-3,6,7-trimethoxy-flavone], for which the EC50 was about 3 µg/mL (≈ 8.71 µM) in series [1] (setting [5]) and 2.5 ± 0.3 µg/mL (≈ 7.26 µM) in series [1] (setting [6]). Moreover, in series [1] (setting [7]), the LC50/EC50 was over 20.0. Moreover, the “toxicity (in words)” value in series [1] (in vivo) was “almost no toxicity”.

On to `C[C@@H]1O[C@@H](OC[C@H]2O[C@@H](Oc3c(-c4ccc(O)c(O)c4)oc4cc(O)cc(O)c4c3=O)[C@H](O)[C@@H](O)[C@@H]2O)[C@H](O)[C@H](O)[C@H]1O` [Sample F-5, neoisorutin], for which, in series [1] (setting [7]), the LC50/EC50 is recorded as over 5.0. For the same compound, the half-maximal effective concentration (EC50) in series [1] (Table 2, larval settlement of Balanus amphitrite, mean ± standard deviation of at least three replicates) worked out at 40.1 ± 3.4 µg/mL (≈ 65.7 µM).

The compound `O=c1c(O)c(-c2ccc(O)cc2)oc2cc(O)cc(O)c12` [Sample F-6, kaempferol] gave an EC50 in series [1] (setting [6]) of 9.6 ± 1.4 µg/mL (≈ 33.5 µM). Also, the LC50/EC50 in series [1] (setting [7]) was over 5.2.

In series [1] (setting [6]), `COc1ccc(-c2oc3cc(OC)cc(O)c3c(=O)c2O)cc1` [Sample F-8, 3,5-dihydroxy-7,4′-dimethoxyflavone] showed a 50% effective concentration (EC50) of 11.8 ± 2.1 µg/mL (≈ 37.5 µM). In series [1] (setting [7]), the LC50/EC50 is listed as over 4.2.

As to `O=c1cc(-c2ccc(O)cc2)oc2cc(O)cc(O)c12` [Sample F-9, 4′,5,7-trihydroxy-flavone], the EC50 in series [1] (setting [5]) is about 3 µg/mL (≈ 11.1 µM); in series [1] (setting [6]), 3.1 ± 0.3 µg/mL (≈ 11.5 µM). The LC50/EC50 in series [1] (setting [7]) is on record as over 16.1. In addition, in series [1] (setting [8]), the “toxicity (in words)” value is “almost no toxicity”.

As for `O=c1cc(-c2ccc(O)c(O)c2)oc2cc(O)cc(O)c12` [Sample F-10], the figures for the 50% effective concentration (EC50) in series [1] (setting [5]) and in series [1] (setting [6]) were about 3 µg/mL (≈ 10.5 µM) and 3.8 ± 0.4 µg/mL (≈ 13.3 µM), respectively. In series [1] (Balanus amphitrite, in vivo, 24 h), this compound came in with an LC50/EC50 of over 13.2. Besides, the “toxicity (in words)” value in series [1] (in vivo) was “almost no toxicity”.

In turn, `O=c1c(-c2ccc(O)cc2)coc2cc(O)cc(O)c12` [Sample F-12, 4′,5,7-trihydroxy-isoflavone] displayed a median lethal concentration (LC50) at 24 h in series [2] of over 50 µg/mL. Besides, the half-maximal effective concentration (EC50) turned out to be 3 µg/mL (≈ 11.1 µM) in series [1] (24 h, genistein from Streptomyces fungicidicus, larval settlement, 24 h at 24° C., method of Rittschof et al. (1994)); 3 µg/mL (≈ 11.1 µM) in series [1] (setting [5]); 3 ± 0.3 µg/mL (≈ 11.1 µM) in series [1] (setting [6]). Besides, in series [1] (FIG. 2), the “concentration at which inhibitory activity against larvae settlement was observed (as low as)” value was 0.5 µg/mL. Further, the LC50/EC50 in series [1] (setting [7]) is given as over 16.7; in series [1] (Table 2, genistein purified from extract of Genista tinctoria) it was over 16.7; in series [1] (genistein from Streptomyces fungicidicus) it was over 16.7. The compound also came in with a larvae settled in series [1] (concentration of 8 μg/ml, control 90% settlement) of 10%. Moreover, the “toxicity (in words)” value in series [1] (setting [8]) is given as “nontoxic”. The genistein decomposed in series [3] (artificial seawater (ASW)) is given as about 35%; in series [3] (filtered natural seawater (FSW)), about 26%; in series [3] (pH 5.0 buffer solution), “About 27%”; in series [3] (pH 7.0 buffer solution), about 31%; in series [3] (pH 9.0 buffer solution), about 37%. The “density of barnacles fouled on the test panels” value is reported as 0.12 ± 0.031 adults cm^−2 in series [4] (10% of dry weight of paint, one month submergence, control 0.32 ± 0.039); 0.57 ± 0.055 adults cm^−2 in series [4] (10% of dry weight of paint, two months submergence, control 0.71 ± 0.053); 0.08 ± 0.027 adults cm^−2 in series [4] (20% of dry weight of paint, one month submergence, control 0.32 ± 0.039); 0.13 ± 0.029 adults cm^−2 in series [4] (20% of dry weight of paint, two months submergence, control 0.71 ± 0.053); 0.77 ± 0.042 adults cm^−2 in series [4] (setting [9]).

In series [1] (setting [6]), `COc1ccc(-c2oc3c(CC=C(C)C)c(O[C@@H]4O[C@H](CO)[C@@H](O)[C@H](O)[C@H]4O)cc(O)c3c(=O)c2O[C@@H]2O[C@@H](C)[C@H](O)[C@@H](O)[C@H]2O)cc1` [Sample F-16, icariin] registered an EC50 of 35.3 ± 4.2 µg/mL (≈ 52.2 µM). The same compound showed an LC50/EC50 in series [1] (setting [7]) of over 2.8.

Take `O=c1cc(-c2ccccc2)oc2cccc(O)c12` [Sample F-17, 5-monohydroxy-flavone]: the EC50 was about 3 µg/mL (≈ 12.6 µM) in series [1] (setting [5]) and 2.8 ± 0.3 µg/mL (≈ 11.8 µM) in series [1] (setting [6]). For the same compound, the LC50/EC50 in series [1] (setting [7]) is over 17.9. In addition, the “toxicity (in words)” value in series [1] (setting [8]) is listed as “almost no toxicity”.

As for Cu2O [reference compound], the “density of barnacles fouled on the test panels” value in series [4] (setting [9]) came to 0.81 ± 0.06 adults cm^−2.
